Test results published in EPA's CvTdb concentration-time database.

Key:
[1] = test system: rat; experiment: concentration in lung after dosing; settings: dosed: benzo[a]pyrene, inhalation, duration: 4 hr, F344
[2] = test system: rat; experiment: concentration in plasma after dosing; settings: dosed: benzo[a]pyrene, inhalation, duration: 4 hr, F344
[3] = test system: rat; experiment: concentration in blood after dosing; negative times count back from the end of exposure; settings: dosed: nonane, inhalation, duration: 4 hr, Fischer-344

Oc1ccc2ccc3c4ccccc4cc4ccc1c2c43 [3-hydroxy benzo[a]pyrene]
Settings	concentration in lung, 0.05 h [ng/mL]	concentration in lung, 1 h [ng/mL]	concentration in lung, 2 h [ng/mL]	concentration in lung, 4 h [ng/mL]	concentration in plasma, 0.5 h [ng/mL]	concentration in plasma, 1 h [ng/mL]	concentration in plasma, 2 h [ng/mL]	concentration in plasma, 4 h [ng/mL]
[1], 0.1 mg/m^3, female	0.389	3.61	0.814	0.209	–	–	–	–
[1], 0.1 mg/m^3, male	0.29	2.87	1.21	0.154	–	–	–	–
[1], 1 mg/m^3, female	11.8	15.5	14.6	1.6	–	–	–	–
[1], 1 mg/m^3, male	5.1	16.6	5.12	3	–	–	–	–
[1], 2.5 mg/m^3, female	23.9	52.2	12.3	1.49	–	–	–	–
[1], 2.5 mg/m^3, male	21.7	48.1	8.15	3.18	–	–	–	–
[2], 0.1 mg/m^3, female	–	–	–	–	0.174	0.689	0.344	0.0192
[2], 0.1 mg/m^3, male	–	–	–	–	0.301	0.905	0.305	0.0316
[2], 1 mg/m^3, female	–	–	–	–	0.399	7	0.356	0.00793
[2], 1 mg/m^3, male	–	–	–	–	0.606	8.58	0.97	0.00272
[2], 2.5 mg/m^3, female	–	–	–	–	5.8	34.5	6.62	0.324
[2], 2.5 mg/m^3, male	–	–	–	–	5.6	33.1	7.14	0.363

CCCCCCCCC [nonane]
[3]
Settings	concentration in blood [µg/g]
0.1362 h, 1000 ppm	11
0.1413 h, 100 ppm	0.367
0.1425 h, 500 ppm	2.81
0.2276 h, 100 ppm	0.309
0.2331 h, 1000 ppm	9.37
0.2405 h, 500 ppm	1.93
0.4818 h, 1000 ppm	5.11
0.4859 h, 100 ppm	0.209
0.4867 h, 500 ppm	1.77
0.9803 h, 500 ppm	1.17
0.9804 h, 100 ppm	0.115
0.9849 h, 1000 ppm	4.34
1.969 h, 100 ppm	0.0382
1.99 h, 500 ppm	0.41
1.992 h, 1000 ppm	2.37
2.984 h, 500 ppm	0.368
2.985 h, 100 ppm	0.0308
2.999 h, 1000 ppm	1.47
3.992 h, 100 ppm	0.0196
3.997 h, 1000 ppm	0.691
4.002 h, 500 ppm	0.255
198 s, 100 ppm	0.432
217 s, 1000 ppm	13.7
239 s, 500 ppm	3.73

[3], during exposure
Settings	concentration in blood [µg/g]
-83 s, 100 ppm	0.892
-71 s, 500 ppm	4.34
-56 s, 1000 ppm	16.8
-3.501 h, 500 ppm	2.02
-3.496 h, 1000 ppm	7.04
-3.494 h, 100 ppm	0.434
-3.003 h, 100 ppm	0.523
-2.994 h, 1000 ppm	6.96
-2.988 h, 500 ppm	2.21
-2.014 h, 1000 ppm	15.4
-2.009 h, 100 ppm	0.518
-2.007 h, 500 ppm	3.72
-1.02 h, 1000 ppm	17.2
-1.016 h, 100 ppm	0.672
-1.013 h, 500 ppm	3.57
